Test results: ChEMBL document CHEMBL1201862, “PubChem BioAssay data set” (2004)
Active and inactive are the calls of the source.

Key:
Fatty acid synthase [1] = molecular target: T1, Fatty acid synthase (Homo sapiens, UniProt P49327); assay: FAS thioesterase domain inhibitors, dose response, biochemical, kinetic fluorescence intensity (AID 624326); assay type: functional;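 further: rate of fluorescence rise from hydrolysis of a fluorogenic O-methyl fluorescein ester substrate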
Fatty acid synthase [2] = molecular target: T1, Fatty acid synthase; assay: FAS thioesterase domain inhibitors, dose response, biochemical, endpoint fluorescence intensity, uHTS hits (AID 624327); assay type: functional;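 further: fluorescence from hydrolysis of an O-methyl fluorescein acyl ester substrate by the enzyme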
Leucine aminopeptidase = molecular target: T2, Leucine aminopeptidase (Plasmodium falciparum 3D7, UniProt Q8IL11); assay: P. falciparum M17LAP inhibitors, primary screen, biochemical, fluorogenic H-Leu-NHMec substrate, 1536-well (AID 1619); assay type: functional
T2 sequence (Q8IL11 whole entry): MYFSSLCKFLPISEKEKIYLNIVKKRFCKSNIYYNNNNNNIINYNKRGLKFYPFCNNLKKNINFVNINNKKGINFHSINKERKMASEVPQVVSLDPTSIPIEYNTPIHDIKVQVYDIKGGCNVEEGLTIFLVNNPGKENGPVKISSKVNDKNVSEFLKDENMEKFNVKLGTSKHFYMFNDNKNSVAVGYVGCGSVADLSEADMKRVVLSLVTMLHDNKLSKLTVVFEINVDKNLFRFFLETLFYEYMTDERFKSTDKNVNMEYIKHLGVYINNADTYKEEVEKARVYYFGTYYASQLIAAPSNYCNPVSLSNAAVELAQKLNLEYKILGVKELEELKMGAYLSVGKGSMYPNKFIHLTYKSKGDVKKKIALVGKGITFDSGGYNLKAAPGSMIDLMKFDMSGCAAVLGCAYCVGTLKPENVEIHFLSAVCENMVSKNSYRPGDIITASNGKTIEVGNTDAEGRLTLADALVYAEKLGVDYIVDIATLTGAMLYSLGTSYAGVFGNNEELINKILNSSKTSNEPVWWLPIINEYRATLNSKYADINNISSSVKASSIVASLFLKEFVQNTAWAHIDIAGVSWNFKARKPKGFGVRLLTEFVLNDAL

[3] = cytotoxicity in HEK-293T cells, dose response, cytotoxicity control for BCR NF-kB inhibitor project, luminescence, B-cell screen hits (AID 489021); assay type: functional, cell-based;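 further: HEK-293T cells carrying an NF-kB luciferase reporter; cells exposed to compound for about 14 hours before viability readout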
[4] = Luminescence Cell-Based Dose Retest to Confirm Inhibitors of Cancer Stem Cells. [Related pubchem assays (depositor defined):AID2717, AID2721]; assay type: functional; conditions: Homo sapiens
[5] = molecular target: T3, Ubiquitin-conjugating enzyme E2 N (Homo sapiens, UniProt P61088); assay type: functional;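 further: Dose-response confirmation in a TR-FRET assay detecting UBC13-driven polyubiquitin chain formation, inhibition measured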
T3 sequence (P61088 whole entry): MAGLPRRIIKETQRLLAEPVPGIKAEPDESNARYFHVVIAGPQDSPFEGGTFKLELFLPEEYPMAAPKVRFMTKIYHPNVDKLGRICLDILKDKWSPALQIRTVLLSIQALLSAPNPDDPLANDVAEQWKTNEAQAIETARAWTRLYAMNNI

[6] = molecular target: Induced myeloid leukemia cell differentiation protein Mcl-1 (Homo sapiens, UniProt Q07820); assay type: functional
Induced myeloid leukemia cell differentiation protein Mcl-1, sequence (Q07820 whole entry): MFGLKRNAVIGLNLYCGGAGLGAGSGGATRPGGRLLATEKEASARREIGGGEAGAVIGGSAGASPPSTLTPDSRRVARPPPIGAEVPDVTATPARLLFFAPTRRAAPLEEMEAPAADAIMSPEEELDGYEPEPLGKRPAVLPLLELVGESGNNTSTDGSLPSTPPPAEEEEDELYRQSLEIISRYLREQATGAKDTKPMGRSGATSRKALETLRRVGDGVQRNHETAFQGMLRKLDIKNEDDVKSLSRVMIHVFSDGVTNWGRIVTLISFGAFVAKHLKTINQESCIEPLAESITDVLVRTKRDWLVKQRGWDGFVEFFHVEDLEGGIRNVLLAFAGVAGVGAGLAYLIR

H9c2 = assay: cells; assay type: functional, cell-based; conditions: Rattus norvegicus, H9c2, Myocardium
[7] = molecular target: T4, Mannose-6-phosphate isomerase (Homo sapiens, UniProt P34949); assay: human PMI inhibitors, high substrate, primary screen, biochemical, fluorescence intensity, high mannose 6-phosphate (AID 1220)
T4 sequence (P34949 whole entry): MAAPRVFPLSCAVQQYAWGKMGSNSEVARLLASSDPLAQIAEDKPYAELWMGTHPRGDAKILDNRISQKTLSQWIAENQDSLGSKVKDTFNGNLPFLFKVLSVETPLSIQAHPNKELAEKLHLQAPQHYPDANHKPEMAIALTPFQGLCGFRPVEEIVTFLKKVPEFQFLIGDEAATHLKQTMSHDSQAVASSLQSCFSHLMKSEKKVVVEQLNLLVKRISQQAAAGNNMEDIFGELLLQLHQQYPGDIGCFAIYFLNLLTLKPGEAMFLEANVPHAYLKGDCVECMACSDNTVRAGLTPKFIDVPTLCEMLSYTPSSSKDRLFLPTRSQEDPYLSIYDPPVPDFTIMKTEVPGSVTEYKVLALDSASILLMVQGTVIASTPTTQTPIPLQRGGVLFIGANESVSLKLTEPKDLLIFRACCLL

Paired box protein Pax-8 = Paired box protein Pax-8 (Homo sapiens, UniProt Q06710); assay: inhibitors of PAX8-driven TPO luciferase reporter, dose response, RMG-I cells, cherry-pick (AID 687027); assay type: functional, cell-based;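 further: luciferase reporter driven by Pax8 target thyroperoxidase promoter measured by SteadyGlo luminescence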
Paired box protein Pax-8, sequence (Q06710 whole entry): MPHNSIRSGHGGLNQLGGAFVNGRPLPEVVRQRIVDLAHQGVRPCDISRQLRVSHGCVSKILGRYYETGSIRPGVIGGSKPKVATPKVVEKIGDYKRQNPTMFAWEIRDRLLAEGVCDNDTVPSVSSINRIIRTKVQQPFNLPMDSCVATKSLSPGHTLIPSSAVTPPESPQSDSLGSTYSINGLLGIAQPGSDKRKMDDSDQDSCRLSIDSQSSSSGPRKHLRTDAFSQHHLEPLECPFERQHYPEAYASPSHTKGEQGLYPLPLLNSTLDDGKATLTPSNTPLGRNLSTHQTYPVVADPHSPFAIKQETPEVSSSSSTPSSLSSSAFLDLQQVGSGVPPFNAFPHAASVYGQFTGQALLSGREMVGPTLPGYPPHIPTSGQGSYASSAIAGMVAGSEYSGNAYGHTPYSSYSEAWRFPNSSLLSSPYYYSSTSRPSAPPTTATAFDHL

[8] = NIH:OVCAR-3 ovarian cancer cell cytotoxicity, dose response, PAX8 inhibitor project, plate reader, dry powder samples (AID 743044); assay type: functional, cell-based
[9] = cytotoxicity in OVCAR8 ovarian cancer cells, dose response, PAX8 project, cell-based, plate reader, dry powder samples (AID 743197); assay type: functional; conditions: OVCAR-8
P388/ADR = assay: cells; assay type: functional; conditions: Mus musculus
SN12K1 = assay: cells; assay type: functional; conditions: Homo sapiens
P388 = assay: cells; assay type: functional; conditions: Mus musculus
[10] = molecular target: T5, Polyadenylate-binding protein 1 (Homo sapiens, UniProt P11940); assay: PABP1 MLLE–PAM2 binding inhibitor potency, dose response, biochemical, fluorescence polarization, FITC-PAM2 peptide (AID 602259); assay type: functional; conditions: read-out: IC50_Mean
T5 sequence (P11940 whole entry): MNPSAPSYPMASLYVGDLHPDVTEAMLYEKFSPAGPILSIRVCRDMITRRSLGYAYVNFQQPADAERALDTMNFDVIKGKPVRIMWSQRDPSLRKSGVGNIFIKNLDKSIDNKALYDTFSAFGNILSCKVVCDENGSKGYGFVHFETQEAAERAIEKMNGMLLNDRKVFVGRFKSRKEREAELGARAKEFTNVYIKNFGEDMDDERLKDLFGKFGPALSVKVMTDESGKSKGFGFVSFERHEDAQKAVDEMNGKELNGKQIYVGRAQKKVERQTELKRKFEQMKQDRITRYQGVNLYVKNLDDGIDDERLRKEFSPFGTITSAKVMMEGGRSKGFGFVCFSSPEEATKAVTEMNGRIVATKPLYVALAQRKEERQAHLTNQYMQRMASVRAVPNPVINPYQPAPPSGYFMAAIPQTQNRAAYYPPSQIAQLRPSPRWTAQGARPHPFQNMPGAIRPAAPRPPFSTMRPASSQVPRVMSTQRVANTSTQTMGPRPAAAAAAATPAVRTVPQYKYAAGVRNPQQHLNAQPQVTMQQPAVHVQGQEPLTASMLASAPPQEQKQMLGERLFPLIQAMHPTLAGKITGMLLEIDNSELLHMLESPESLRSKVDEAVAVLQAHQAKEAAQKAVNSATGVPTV

[11] = molecular target: T5, Polyadenylate-binding protein 1; assay: PABP1 MLLE–PAM2 interaction inhibitors, dose response, miRNA deadenylation inhibitor project, biochemical, fluorescence polarization, Cy5-PAM2 peptide, secondary (AID 602260); assay type: functional; conditions: read-out: IC50_Mean
[12] = molecular target: T6, Replicative DNA helicase DnaB (Mycobacterium tuberculosis, UniProt P9WMR3); assay: DnaB intein splicing inhibitors, dose response, biochemical, cell-free fluorescence (AID 449749); assay type: functional
T6 sequence (P9WMR3 whole entry): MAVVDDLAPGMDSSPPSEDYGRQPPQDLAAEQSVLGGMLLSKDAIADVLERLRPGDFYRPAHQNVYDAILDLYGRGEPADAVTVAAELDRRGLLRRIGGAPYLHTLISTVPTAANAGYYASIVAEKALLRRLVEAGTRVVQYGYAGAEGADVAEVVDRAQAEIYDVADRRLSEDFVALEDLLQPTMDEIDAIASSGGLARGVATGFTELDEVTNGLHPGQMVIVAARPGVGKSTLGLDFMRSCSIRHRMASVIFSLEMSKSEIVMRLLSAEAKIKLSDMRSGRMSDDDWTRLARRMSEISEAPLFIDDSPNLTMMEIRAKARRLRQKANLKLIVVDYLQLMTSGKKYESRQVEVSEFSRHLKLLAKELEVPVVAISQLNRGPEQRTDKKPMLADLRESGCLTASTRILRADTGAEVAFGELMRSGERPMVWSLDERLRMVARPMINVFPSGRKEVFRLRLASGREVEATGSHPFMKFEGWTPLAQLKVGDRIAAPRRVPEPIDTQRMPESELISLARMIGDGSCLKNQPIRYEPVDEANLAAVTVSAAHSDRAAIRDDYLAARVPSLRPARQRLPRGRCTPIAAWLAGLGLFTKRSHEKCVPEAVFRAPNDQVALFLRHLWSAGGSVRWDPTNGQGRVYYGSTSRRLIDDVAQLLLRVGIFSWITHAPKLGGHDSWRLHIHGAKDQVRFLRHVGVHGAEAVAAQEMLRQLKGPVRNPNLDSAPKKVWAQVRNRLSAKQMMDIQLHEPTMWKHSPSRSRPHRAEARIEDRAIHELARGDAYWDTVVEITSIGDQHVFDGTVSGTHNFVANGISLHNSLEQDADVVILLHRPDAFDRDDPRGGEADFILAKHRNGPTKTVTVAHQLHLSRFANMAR

Protein RecA = molecular target: T7, Protein RecA (Mycobacterium tuberculosis, UniProt P9WHJ3); assay: Fluorescence Cell-Free Homogeneous Dose Retest to Identify Inhibitors of RecA-Intein Splicing Activity. [Related pubchem assays (depositor defined):AID2097, AID2223, AID489010, AID492950]; assay type: functional
T7 sequence (P9WHJ3 whole entry): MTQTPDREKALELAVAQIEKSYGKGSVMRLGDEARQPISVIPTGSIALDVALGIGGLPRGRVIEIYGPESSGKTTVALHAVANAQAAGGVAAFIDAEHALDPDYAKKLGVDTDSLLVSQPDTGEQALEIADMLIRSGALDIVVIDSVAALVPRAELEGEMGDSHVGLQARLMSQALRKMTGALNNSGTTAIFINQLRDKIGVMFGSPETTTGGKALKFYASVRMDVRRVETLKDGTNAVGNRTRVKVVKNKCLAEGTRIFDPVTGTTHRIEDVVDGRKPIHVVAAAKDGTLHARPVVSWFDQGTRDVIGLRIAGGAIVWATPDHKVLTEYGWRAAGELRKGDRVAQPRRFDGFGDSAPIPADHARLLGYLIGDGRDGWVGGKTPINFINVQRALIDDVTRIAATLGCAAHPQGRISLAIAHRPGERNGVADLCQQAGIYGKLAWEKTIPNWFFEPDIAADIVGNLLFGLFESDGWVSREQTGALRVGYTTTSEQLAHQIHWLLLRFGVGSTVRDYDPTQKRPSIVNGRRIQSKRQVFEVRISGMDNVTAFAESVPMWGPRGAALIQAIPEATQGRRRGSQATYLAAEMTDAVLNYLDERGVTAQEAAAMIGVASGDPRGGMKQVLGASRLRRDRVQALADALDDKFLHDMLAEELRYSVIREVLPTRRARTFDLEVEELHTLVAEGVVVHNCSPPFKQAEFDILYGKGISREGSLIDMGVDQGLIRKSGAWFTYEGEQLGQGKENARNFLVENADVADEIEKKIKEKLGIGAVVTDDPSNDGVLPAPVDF

T1 sequence (P49327 whole entry, the tested form may be a part): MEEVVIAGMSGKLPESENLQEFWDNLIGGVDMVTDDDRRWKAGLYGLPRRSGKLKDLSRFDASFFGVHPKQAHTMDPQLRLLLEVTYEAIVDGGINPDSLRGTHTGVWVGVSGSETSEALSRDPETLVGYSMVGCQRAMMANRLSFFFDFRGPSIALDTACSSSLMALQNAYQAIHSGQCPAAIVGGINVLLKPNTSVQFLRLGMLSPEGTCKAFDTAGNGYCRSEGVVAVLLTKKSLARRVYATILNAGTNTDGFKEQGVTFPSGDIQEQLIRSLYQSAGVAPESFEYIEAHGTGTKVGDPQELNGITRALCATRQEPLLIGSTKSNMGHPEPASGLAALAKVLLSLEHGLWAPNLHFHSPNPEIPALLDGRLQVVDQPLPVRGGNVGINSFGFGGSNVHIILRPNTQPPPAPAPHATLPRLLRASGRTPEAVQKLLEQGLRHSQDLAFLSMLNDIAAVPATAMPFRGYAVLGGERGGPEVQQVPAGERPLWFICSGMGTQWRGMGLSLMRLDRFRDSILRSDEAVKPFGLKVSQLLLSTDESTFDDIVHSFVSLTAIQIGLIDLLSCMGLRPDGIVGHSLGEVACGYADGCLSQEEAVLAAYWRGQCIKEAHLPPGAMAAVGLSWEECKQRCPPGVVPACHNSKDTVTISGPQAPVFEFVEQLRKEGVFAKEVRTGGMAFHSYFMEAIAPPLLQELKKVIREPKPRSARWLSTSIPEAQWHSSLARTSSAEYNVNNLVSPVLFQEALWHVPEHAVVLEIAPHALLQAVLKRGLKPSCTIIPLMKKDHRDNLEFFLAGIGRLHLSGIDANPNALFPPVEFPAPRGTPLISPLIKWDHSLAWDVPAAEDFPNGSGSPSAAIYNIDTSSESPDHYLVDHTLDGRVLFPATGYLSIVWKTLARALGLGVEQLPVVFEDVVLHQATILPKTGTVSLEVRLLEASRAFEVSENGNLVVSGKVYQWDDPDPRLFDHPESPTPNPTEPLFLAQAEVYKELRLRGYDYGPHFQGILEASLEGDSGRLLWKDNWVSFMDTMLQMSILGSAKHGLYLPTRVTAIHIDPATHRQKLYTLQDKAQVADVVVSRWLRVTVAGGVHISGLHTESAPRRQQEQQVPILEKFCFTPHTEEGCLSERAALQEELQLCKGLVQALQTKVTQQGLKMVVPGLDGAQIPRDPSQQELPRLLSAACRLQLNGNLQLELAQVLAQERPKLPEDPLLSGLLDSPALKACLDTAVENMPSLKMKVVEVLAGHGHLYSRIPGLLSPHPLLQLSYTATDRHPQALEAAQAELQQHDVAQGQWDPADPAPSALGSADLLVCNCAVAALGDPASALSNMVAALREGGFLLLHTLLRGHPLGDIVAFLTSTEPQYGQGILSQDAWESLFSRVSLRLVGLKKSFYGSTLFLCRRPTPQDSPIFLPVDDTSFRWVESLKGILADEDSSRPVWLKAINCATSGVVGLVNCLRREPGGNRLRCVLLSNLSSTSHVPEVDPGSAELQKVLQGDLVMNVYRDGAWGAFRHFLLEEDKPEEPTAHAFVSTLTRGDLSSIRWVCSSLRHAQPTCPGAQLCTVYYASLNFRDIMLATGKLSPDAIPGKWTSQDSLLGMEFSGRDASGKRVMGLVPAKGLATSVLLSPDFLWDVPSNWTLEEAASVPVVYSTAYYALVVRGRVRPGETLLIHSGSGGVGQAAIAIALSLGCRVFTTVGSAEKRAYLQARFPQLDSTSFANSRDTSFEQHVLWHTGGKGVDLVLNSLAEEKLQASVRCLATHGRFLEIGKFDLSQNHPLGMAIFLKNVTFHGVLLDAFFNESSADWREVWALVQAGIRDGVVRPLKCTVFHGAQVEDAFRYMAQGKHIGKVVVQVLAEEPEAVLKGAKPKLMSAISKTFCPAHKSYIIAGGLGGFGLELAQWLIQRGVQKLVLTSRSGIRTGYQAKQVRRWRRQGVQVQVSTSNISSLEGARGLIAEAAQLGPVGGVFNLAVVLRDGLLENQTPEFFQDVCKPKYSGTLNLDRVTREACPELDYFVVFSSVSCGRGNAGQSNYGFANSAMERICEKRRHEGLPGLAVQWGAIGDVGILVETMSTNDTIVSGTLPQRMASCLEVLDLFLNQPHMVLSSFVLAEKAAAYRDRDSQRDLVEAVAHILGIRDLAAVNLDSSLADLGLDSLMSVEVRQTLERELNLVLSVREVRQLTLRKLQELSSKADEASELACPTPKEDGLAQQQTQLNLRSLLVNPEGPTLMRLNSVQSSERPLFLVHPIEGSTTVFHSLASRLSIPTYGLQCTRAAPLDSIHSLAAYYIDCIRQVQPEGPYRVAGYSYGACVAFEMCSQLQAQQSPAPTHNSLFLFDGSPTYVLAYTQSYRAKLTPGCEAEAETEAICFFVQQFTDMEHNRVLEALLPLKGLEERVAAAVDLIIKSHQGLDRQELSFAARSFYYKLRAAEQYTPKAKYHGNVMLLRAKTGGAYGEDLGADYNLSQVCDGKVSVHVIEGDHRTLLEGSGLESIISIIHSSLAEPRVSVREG

## O=[N+]([O-])c1ccc(Sc2nnc(-c3ccccc3)[nH]2)nc1
Fatty acid synthase [1]
  IC50: 10.6 µM (active)
Fatty acid synthase [2]
  IC50: 10.9 µM (active)
Leucine aminopeptidase
  IC50: 31.5 µM (active)

## O=C(NNC(=O)C12CC3CC(CC(Br)(C3)C1)C2)c1ccccc1F
[3]
  IC50: > 80 µM (inactive)

## COc1cccc(-c2sc3ccccc3c2-c2ccc(OCCN3CCCCC3)cc2)c1
[4]
  AC50: 1.43 µM (active)
[5]
  IC50: > 20 µM (inactive)

## COc1ccc(NC(=O)CSc2ncnc3c2sc2ccccc23)c(OC)c1
[6]
  IC50: 10.3 µM (not active)

## C[C@H]1Cn2cnc(C(=O)N[C@@H](Cc3c[nH]c4ccccc34)C(=O)OC(C)(C)C)c2C(=O)N1
H9c2
  IC50: 18 µM (active)

## COc1cc(/C=C/C(=O)OCC(=O)N2c3ccccc3NC(=O)C2(C)C)cc(OC)c1OC
H9c2
  IC50: > 79 µM (inactive)

## CC(C)Oc1ccc(C(CC(=O)O)NC(=O)CSc2nnc[nH]2)cc1 (configuration not stated)
Leucine aminopeptidase
  IC50: 47.4 µM (active)

## CCCOc1ccc(C(=O)Nc2ccc(N(C)C)cc2)cc1
[6]
  IC50: 3.27 µM (not active)

## COc1ccc(-c2noc(N3CCC(C(=O)Nc4ccc(OC)c(OC)c4)CC3)n2)cc1
[3]
  IC50: > 80 µM (inactive)

## Cc1ccc(-c2[nH]c(C(=O)NCC3CCCO3)cc3c4ccccc4nc2-3)cc1 (configuration not stated)
[3]
  IC50: > 80 µM (inactive)

## CCOc1ccc(N2C(=O)CC(SCCN)C2=O)cc1 (configuration not stated)
Leucine aminopeptidase
  IC50: 23.6 µM (active)

## CCC(C)Nc1ncnc2c1cnn2Cc1ccc(Cl)cc1 (configuration not stated)
H9c2
  IC50: > 79 µM (inactive)

## O=C(O)Cn1nnnc1SCC(=O)Nc1ccc(OC(F)(F)F)cc1
Leucine aminopeptidase
  IC50: 5.22 µM (active)

## O=C(COC(=O)c1cc(O)nc(O)n1)Nc1cccc(Cl)c1
[5]
  IC50: > 20 µM (inactive)

## Oc1ccc(N2CCN(c3ncnc4sc5c(c34)CCC5)CC2)cc1
[6]
  IC50: 4.31 µM (active)

## CNc1c([N+](=O)[O-])ccc2c1=NC1(CCCCC1)[N+]=2[O-]
[7]
  IC50: > 50 µM (not active)

## C[C@@H]1CN([C@H](C)CO)C(=O)c2cc(NS(=O)(=O)c3ccc(F)cc3)ccc2O[C@@H](C)CCCCO[C@@H]1CN(C)CC1CCCCC1
Paired box protein Pax-8
  AC50: 13 µM (active)
[8]
  AC50: 44 µM (active)
[9]
  AC50: > 70 µM (inactive)

## Cc1ccc2[nH]c3c(C)c4ccncc4c(C)c3c2c1
P388/ADR
  GI50: 0.933 µM (active)
SN12K1
  GI50: 0.927 µM (active)
P388
  GI50: 0.394 µM (active)

## CCN=C(S)N=Nc1c(O)[nH]c2ccc([N+](=O)[O-])cc12
[10]
  IC50: > 66 µM (inactive)
[11]
  IC50: > 66 µM (inactive)
[12]
  AC50: > 380 µM (inactive)
Protein RecA
  EC50: 56.6 µM (active)
[5]
  IC50: > 20 µM (inactive)

## C[C@@H]1CCCCO[C@H](CN(C)C(=O)Nc2ccc(C(F)(F)F)cc2)[C@@H](C)CN([C@@H](C)CO)C(=O)c2cc(NC(=O)Nc3ccc(C(F)(F)F)cc3)ccc2O1
Paired box protein Pax-8
  AC50: 2.32 µM (active)
[8]
  AC50: 19.6 µM (active)
[9]
  AC50: 32.8 µM (active)

## CSc1nc2c(ncn2C2OCC(O)C(O)C2O)c(=O)[nH]1 (configuration not stated)
P388/ADR
  GI50: > 100 µM (inactive)
SN12K1
  GI50: > 100 µM (inactive)
P388
  GI50: > 100 µM (inactive)

## O=C(/C=C\c1cn(-c2ccccc2)nc1-c1ccc2c(c1)OCCO2)N1CCOCC1
H9c2
  IC50: > 79 µM (inactive)

## O=C(Nc1cccc(/C=C/c2ccccn2)c1)c1ccc(-n2cncn2)cc1
H9c2
  IC50: 38.2 µM (inactive)

## C/C=C1/C(=O)O[C@]23C=C[C@@H]4C(C(=O)OC)=CO[C@H](O[C@@H]12)[C@@H]43 [PLUMERICIN]
P388/ADR
  GI50: 0.0853 µM (active)
SN12K1
  GI50: 1.09 µM (active)
P388
  GI50: 0.105 µM (active)

## COc1cc(OC)cc(C(=O)Nc2ccc(C(=O)Nc3ccccc3OC)cc2)c1
H9c2
  IC50: > 79 µM (inactive)
